The NIST ThermoML archive (doi:10.1021/acs.jced.5b00256)
± gives the expanded uncertainty stated by the source.

Experiments:
[1] = refractive index (Na D-line) (dimensionless); xn = mol fraction of the nth substance listed; details: 100 kPa, Liquid, Standard Abbe refractometry, x1 = 1
[2] = relative permittivity at various frequencies (dimensionless); xn = mol fraction of the nth substance listed; details: 100 kPa, Liquid, Frequency=2 MHz, Parallel plate capacitor, x1 = 1
[3] = 101.33 kPa, Liquid, Pycnometric method
[4] = refractive index (Na D-line) (dimensionless); details: 100 kPa, Liquid, Standard Abbe refractometry
[5] = relative permittivity at various frequencies (dimensionless); details: 100 kPa, Liquid, Frequency=2 MHz, Parallel plate capacitor

Compound	refractive index ([1]; 303.15 K)	refractive index ([1]; 313.15 K)	refractive index ([1]; 323.15 K)	refractive index ([1]; 333.15 K)	relative permittivity ([2]; 303.15 K)	relative permittivity ([2]; 313.15 K)	relative permittivity ([2]; 323.15 K)	relative permittivity ([2]; 333.15 K)	mass density ([3]; 303.15 K) [kg/m3]	mass density ([3]; 313.15 K) [kg/m3]	mass density ([3]; 323.15 K) [kg/m3]	mass density ([3]; 333.15 K) [kg/m3]	refractive index ([4]; 303.15 K)	refractive index ([4]; 313.15 K)	refractive index ([4]; 323.15 K)	refractive index ([4]; 333.15 K)	relative permittivity ([5]; 303.15 K)	relative permittivity ([5]; 313.15 K)	relative permittivity ([5]; 323.15 K)	relative permittivity ([5]; 333.15 K)
CCCO [propan-1-ol] + COc1cccc(Br)c1	1.383 ± 0.002	1.38 ± 0.002	1.376 ± 0.002	1.371 ± 0.002	19.49 ± 0.6	18.53 ± 0.6	17.59 ± 0.6	16.03 ± 0.6	–	–	–	–	–	–	–	–	–	–	–	–
CCCO [propan-1-ol]	–	–	–	–	–	–	–	–	793.9 ± 6	791.7 ± 6	784.4 ± 6	775.6 ± 6	1.383 ± 0.002	1.38 ± 0.002	1.376 ± 0.002	1.371 ± 0.002	19.49 ± 0.6	18.53 ± 0.6	17.59 ± 0.6	16.03 ± 0.6
COc1cccc(Br)c1 [1-bromo-3-methoxybenzene]	–	–	–	–	–	–	–	–	1467.6 ± 6.1	–	–	–	1.56 ± 0.002	1.558 ± 0.002	1.553 ± 0.002	1.55 ± 0.002	7.01 ± 0.6	6.85 ± 0.6	6.74 ± 0.6	6.6 ± 0.6
